{
  "source": "PubChem BioAssay AID651677",
  "about": "(The Scripps Research Institute Molecular Screening Center, 2012)",
  "note": "Activity calls are given as the source filed them. The rule behind the calls is not given here.",
  "data": [
    {"biological_target": "Perilipin-5 (Homo sapiens) + 1-acylglycerol-3-phosphate O-acyltransferase ABHD5 (Homo sapiens) (UniProt Q00G26+Q8WTS1)", "sequence (Q00G26 whole entry, looked up)": "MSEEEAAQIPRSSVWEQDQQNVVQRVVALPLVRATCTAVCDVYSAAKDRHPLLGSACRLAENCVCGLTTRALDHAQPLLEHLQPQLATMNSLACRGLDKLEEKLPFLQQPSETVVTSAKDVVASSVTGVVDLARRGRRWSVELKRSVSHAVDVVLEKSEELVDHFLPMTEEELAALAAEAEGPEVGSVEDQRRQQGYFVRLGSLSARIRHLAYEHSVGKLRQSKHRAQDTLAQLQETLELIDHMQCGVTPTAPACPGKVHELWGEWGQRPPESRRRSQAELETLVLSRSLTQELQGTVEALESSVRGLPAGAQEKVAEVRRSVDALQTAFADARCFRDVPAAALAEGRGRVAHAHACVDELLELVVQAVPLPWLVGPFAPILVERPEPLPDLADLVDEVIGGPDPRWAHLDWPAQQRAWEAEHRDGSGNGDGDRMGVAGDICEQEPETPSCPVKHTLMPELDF", "sequence (Q8WTS1 whole entry, looked up)": "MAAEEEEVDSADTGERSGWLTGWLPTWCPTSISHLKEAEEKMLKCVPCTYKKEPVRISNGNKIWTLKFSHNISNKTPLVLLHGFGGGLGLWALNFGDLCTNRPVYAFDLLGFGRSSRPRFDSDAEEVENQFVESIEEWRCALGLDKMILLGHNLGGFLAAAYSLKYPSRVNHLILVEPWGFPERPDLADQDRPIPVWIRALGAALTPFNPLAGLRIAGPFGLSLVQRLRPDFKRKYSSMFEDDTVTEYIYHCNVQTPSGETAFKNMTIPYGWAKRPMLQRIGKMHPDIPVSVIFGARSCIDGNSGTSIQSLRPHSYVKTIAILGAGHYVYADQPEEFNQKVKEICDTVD", "assay": "blockers of ABHD5 binding to perilipin-5 – biochemical, luminescence, dose response (AID 651677)", "conditions": "ABHD5-PLIN5 interaction", "values": [
      {"molecule": "Cc1cccc(C)c1NC(=O)C(c1ccc(C(F)(F)F)cc1)n1c(=O)c(-c2ccco2)nc2ccccc21", "note": "(configuration not stated)", "IC50": "2.22 µM"},
      {"molecule": "C#CCN(C[C@@H]1[C@@H](OC(=O)Nc2cccs2)[C@@H](OC(=O)Nc2cccs2)Cn2c(=O)ccc(=O)n21)S(=O)(=O)c1ccc(C)cc1", "IC50": "1.78 µM"},
      {"molecule": "O=C(NC1CCCCC1)C(c1cc2ccccc2o1)n1c(=O)c(-c2ccco2)nc2ccccc21", "note": "(configuration not stated)", "IC50": "1.36 µM"},
      {"molecule": "CC(c1nc2ccccc2[nH]1)n1c(=O)c(-c2ccco2)nc2ccccc21", "note": "(configuration not stated)", "IC50": "2.76 µM"},
      {"molecule": "O=C1/C(=C/c2cccnc2)CC/C1=C\\c1cccnc1", "IC50": "3.31 µM"},
      {"molecule": "CC(C)(C)NC(=O)C(c1ccncc1)n1c(=O)c(-c2ccco2)nc2ccccc21", "note": "(configuration not stated)", "IC50": "3.66 µM"},
      {"molecule": "COC(=O)c1ccc(Cn2cc(/C=C\\[N+](=O)[O-])c3ccccc32)o1", "IC50": "6.26 µM"},
      {"molecule": "CCOC(=O)/C(=C\\c1ccc(Cl)cc1)c1nc2sc(C)c(C)c2c(=O)[nH]1", "IC50": "0.75 µM"},
      {"molecule": "CSc1nnc(NC(=O)c2nc(S(=O)(=O)Cc3ccccc3)ncc2Cl)s1", "IC50": "3.83 µM"},
      {"molecule": "O=C(/C=C/c1ccc2c(c1)OCCCO2)c1ccccc1O", "IC50": "5.65 µM"},
      {"molecule": "Cc1cccc(C)c1NC(=O)C(c1ccc(-c2ccccc2)cc1)n1c(=O)c(-c2ccco2)nc2ccccc21", "note": "(configuration not stated)", "IC50": "1.33 µM"},
      {"molecule": "CC(C)(C)NC(=O)C(C1CC1)n1c(=O)c(-c2ccco2)nc2ccccc21", "note": "(configuration not stated)", "IC50": "2.74 µM"},
      {"molecule": "Cc1cc(C)c(NC(=O)C[N+](C)(C)CC(O)COc2cccc3ccccc23)c(C)c1", "note": "(configuration not stated)", "IC50": "7.49 µM"},
      {"molecule": "Cc1cccc(C)c1OCc1cn(CC(=O)c2ccc(O)cc2)nn1", "IC50": "2.83 µM"},
      {"molecule": "CC1=CC(C)(C)Nc2ccc(OC(=O)C(C)N3C(=O)c4ccccc4C3=O)cc21", "note": "(configuration not stated)", "IC50": "2.64 µM"},
      {"molecule": "CN(C)CCOc1ccc(/C(=C(/CCCl)c2ccccc2)c2ccccc2)cc1", "IC50": "1.38 µM"},
      {"molecule": "Cc1ccc(S(=O)(=O)N2C[C@@]3(O)Cn4c(=O)ccc(=O)n4C[C@@]3(OC(=O)NCC3CCCCC3)C2)cc1", "IC50": "3.99 µM"},
      {"molecule": "Cc1cccc(C)c1NC(=O)C(c1ccnc2ccccc12)n1c(=O)c(-c2ccco2)nc2ccccc21", "note": "(configuration not stated)", "IC50": "3.55 µM"},
      {"molecule": "C#CCN(C[C@@H]1[C@@H](OC(=O)NCc2ccc(OC)c(OC)c2)[C@@H](OC(=O)NCc2ccc(OC)c(OC)c2)Cn2c(=O)ccc(=O)n21)S(=O)(=O)c1ccc(C)cc1", "IC50": "5.25 µM"},
      {"molecule": "CCOC(=O)C1C(OC(=O)c2ccccc2)CC2CCC1N2C", "note": "(configuration not stated)", "IC50": "9.39 µM"},
      {"molecule": "CC(C)(C)NC(=O)C(c1ccnc2ccccc12)n1c(=O)c(-c2ccco2)nc2ccccc21", "note": "(configuration not stated)", "IC50": "4.81 µM"},
      {"molecule": "COCCN(CCOC)c1nc(N)c2c(N)nc3c(c2c1C#N)CC(=O)N3Cc1ccc(Cl)cc1", "IC50": "inactive"},
      {"molecule": "CCCCCNC(=O)C(c1ccc(C(F)(F)F)cc1)n1c(=O)c(-c2ccco2)nc2ccccc21", "note": "(configuration not stated)", "IC50": "1.82 µM"},
      {"molecule": "COc1ccc(-c2cc(N)n(S(=O)(=O)c3c(F)c(F)c(F)c(F)c3F)n2)cc1OC", "IC50": "6.83 µM"},
      {"molecule": "O=C(Nc1ccc2c(c1)OCCO2)C(c1ccccc1F)n1c(=O)c(-c2ccco2)nc2ccccc21", "note": "(configuration not stated)", "IC50": "inactive"},
      {"molecule": "CC1CCN(S(=O)(=O)c2ccc(NC(=O)Cc3ccccc3)cc2)CC1", "IC50": "9.47 µM"},
      {"molecule": "O=c1[nH]c(C2CCN(S(=O)(=O)c3ccc(F)cc3)CC2)nc2c1nnn2Cc1ccc2c(c1)OCCO2", "IC50": "inactive"},
      {"molecule": "CCCCCNC(=O)C(C1CC1)n1c(=O)c(-c2ccco2)nc2ccccc21", "note": "(configuration not stated)", "IC50": "9.79 µM"},
      {"molecule": "CCOc1cc(/C=C2\\CCC/C(=C\\c3cc(Cl)c(O)c(OCC)c3)C2=O)cc(Cl)c1O", "IC50": "4.16 µM"},
      {"molecule": "C=C[C@]1(C)C[C@@H](OC(=O)CSCCN(CC)CC)[C@]2(C)C(C)CC[C@]3(CCC(=O)[C@H]32)[C@@H](C)[C@@H]1O", "note": "(some centres not stated)", "IC50": "8.04 µM"},
      {"molecule": "O=c1nc(/C=C/c2ccc(Cl)cc2Cl)cc(C(F)(F)F)[nH]1", "IC50": "3.48 µM"},
      {"molecule": "CCCCCNC(=O)C(c1ccc(C#N)cc1)n1c(=O)c(-c2ccco2)nc2ccccc21", "note": "(configuration not stated)", "IC50": "3.15 µM"},
      {"molecule": "CC(=O)Oc1c(Br)cc(N(C(C)=O)S(=O)(=O)c2ccccc2)c2ccccc12", "IC50": "6.41 µM"},
      {"molecule": "O=C(/C=C/c1ccccc1)CC(O)(c1ccccc1)C(F)(F)C(F)F", "note": "(configuration not stated)", "IC50": "1.15 µM"},
      {"molecule": "CCCc1nnc(NC(=O)c2nc(S(=O)(=O)Cc3cccc(C)c3)ncc2Cl)s1", "IC50": "3.41 µM"},
      {"molecule": "CC(=O)Oc1ccc(C23c4ccccc4C2(OC(C)=O)c2cc(OC(C)=O)ccc23)cc1", "note": "(configuration not stated)", "IC50": "0.72 µM"},
      {"molecule": "CC(C)(C)NC(=O)C(c1ccccc1F)n1c(=O)c(-c2ccco2)nc2ccccc21", "note": "(configuration not stated)", "IC50": "2.27 µM"}
    ]}
  ]
}
